This passage reports EC90 and CC90 results from US20120202794A1 (priority 2011, published 2012).

One data set relates to HCV Replicon 1b. Kind of data set: HCV inhibition assay, HCV replicon 1b (Clone A or ET-lunet cells; RT-PCR or luciferase reporter). Conditions: Hepatitis C virus, 96 h, HCV replicon 1b; 4 days incubation; read-out: Replicon 1b potency EC90. Format: cell-based. As for the experimental part:
HCV inhibition assay. Clone A or ET-lunet cells were seeded at a density of 1500 or 3000 cells per well in a 96-well plate, respectively. Test compounds serially diluted in culture medium without G418 were added to cells so that the final DMSO concentration was 0.5%. Plates were incubated at 37° C. in a 5% CO2 atmosphere for 4 days. Inhibition of HCV RNA replication was determined by real time PCR (RT-PCR) or by measuring the levels of luminescence expressed via the luciferase reporter gene encoded within the ET replicon. Briefly, for the RT-PCR assay, total RNA was extracted using the RNeasy-96 kit as recommended by the manufacturer (Qiagen, Valencia, Calif.), reversed transcribed into cDNA, and amplified using primer and probe mix for HCV 5′-NTR RNA and human ribosomal RNA (rRNA) in a one-step RT-PCR reaction as described previously (50). A relative quantification method was used to determine the extent of inhibition. The threshold cycle (Ct) of rRNA was subtracted from the Ct of HCV RNA (ΔCt). The average ΔCt of the DMSO cell controls was then subtracted from the ΔCt of the compound treated sample (ΔΔCt). Percent inhibition was determined by using the following equation: %=(1−(2^−ΔΔC^t))×100. For the luciferase-based replicon assay, luminescence was measured by using a Victor3 plate reader (Perkin-Elmer, Boston, Mass.) following the addition of Bright-Glo reagent as recommended by the manufacturer (Promega, Madison, Wis.). Percent inhibition of HCV replication was determined by comparing the change in luminescence of the drug treated wells versus the DMSO cell controls. EC50 and EC90 values, the concentrations at which 50% and 90% inhibition were achieved, were determined using the GraphPad Prism software (San Diego, Calif.).
A general note: A replicon is a self-replicating genome or part of one, used to study replication in cells.

Data set [1] in a line: Cell cytotoxicity assay (MTS), CC90 as reported in Table 1, cell line not stated. Particulars: human; cell line not given. It is filed as cell-based. On the procedure: Cell cytotoxicity assays. Each compound (serially diluted from 100 μM) was added to Huh7 (2×10^3 cells/well), HepG2 (2×10^3 cells/well), BxPC3 (2×10^3 cells/well), or CEM (5×10^3 cells/well) cells and allowed to incubate for 8 days at 37° C. A medium only control was used to determine the minimum absorbance value […]. At the end of the growth period, MTS dye from the CellTiter 96 Aqueous One Solution Cell Proliferation Assay kit (Promega) was added to each well and the plate was incubated for an additional 2 hours. The absorbance at 490 nm was read with a Victor3 plate reader (Perkin Elmer) using the medium only control wells as blanks. The 90% inhibition value (CC90) was determined by comparing the absorbance in wells containing cells and test compound to untreated cell control wells.

On to `CCC[C@H]1CN(C(=O)c2nc(-c3ccccc3)no2)[C@@H](CC(C)C)C(=O)N1` [Compound 150], for which the EC90 with HCV Replicon 1b stood at 590 nM. Further, the CC90 at 8 days in data set [1] was more than 10000 nM.
The corresponding values for `CC(C)C[C@H]1C(=O)N[C@@H](c2ccccc2)CN1C(=O)c1nc(-c2ccc(F)cc2)no1` [Compound 151] are 40 nM and more than 10000 nM.
The like results for `CC(C)C[C@H]1C(=O)N[C@@H](C2CCCC2)CN1C(=O)c1nc(-c2ccc(F)cc2)no1` [Compound 152] were, in that order, 110 nM and more than 10000 nM.
The corresponding values for `CC(C)C[C@H]1C(=O)N[C@@H](C(C)C)CN1C(=O)c1nc(-c2ccc(F)cc2)no1` [Compound 153] are 220 nM and more than 10000 nM.
`CSC[C@H]1CN(C(=O)c2nc(-c3ccc(F)cc3)no2)[C@@H](CC(C)C)C(=O)N1` [Compound 154]: in the data set on HCV Replicon 1b, the concentration for an effect of 90% (EC90) worked out at 780 nM. In addition, the CC90 at 8 days in data set [1] was more than 10000 nM.
The like results for `CC(C)C[C@H]1CN(C(=O)c2cc(-c3ccc([N+](=O)[O-])cc3)on2)[C@@H](CC(C)C)C(=O)N1` [Compound 155] were, in that order, 2600 nM and more than 10000 nM.
The like results for `CC(C)C[C@H]1C(=O)N[C@@H](C2CCCCC2)CN1C(=O)c1cc(-c2ccc(F)cc2F)on1` [Compound 156] were, in that order, 1150 nM and more than 10000 nM.
The corresponding values for `CC(C)C[C@H]1C(=O)N[C@@H](C2CCCC2)CN1C(=O)c1cc(-c2ccc(F)cc2F)on1` [Compound 157] are 490 nM and more than 10000 nM.
With `CCC[C@H]1CN(C(=O)c2cc(-c3ccc(Cl)c(F)c3)on2)[C@@H](CC(C)C)C(=O)N1` [Compound 158], the EC90 in the data set on HCV Replicon 1b was determined as 440 nM. Further, the CC90 at 8 days in data set [1] is more than 10000 nM.
The like results for `CC(C)C[C@H]1C(=O)N[C@@H](C2CCCCC2)CN1C(=O)c1cc(-c2ccc(Cl)c(F)c2)on1` [Compound 159] were, in that order, 710 nM and more than 10000 nM.
The corresponding values for `CC(C)C[C@H]1C(=O)N[C@@H](C2CCCC2)CN1C(=O)c1cc(-c2ccc(Cl)c(F)c2)on1` [Compound 160] are 410 nM and more than 10000 nM.
The corresponding values for `CCC[C@H]1CN(C(=O)c2cc(-c3ccc(F)cc3)on2)[C@@H](CC(C)C)C(=O)N1` [Compound 161] are 70 nM and more than 10000 nM.
Consider `CC(C)C[C@H]1C(=O)N[C@@H](C2CCCCC2)CN1C(=O)c1cc(-c2ccc(F)cc2)on1` [Compound 162], for which, in the data set with HCV Replicon 1b, the EC90 turned out to be 1800 nM. The compound further gave a CC90 at 8 days in data set [1] of more than 10000 nM.
As for `CC(C)C[C@H]1C(=O)N[C@@H](C2CCCC2)CN1C(=O)c1cc(-c2ccc(F)cc2)on1` [Compound 163], the EC90 in the data set on HCV Replicon 1b worked out at 90 nM. For the same compound, in data set [1], the CC90 at 8 days was more than 10000 nM.
The corresponding values for `CCC[C@H]1CN(C(=O)c2cc(-c3ccc(F)cc3F)on2)[C@@H](CC(C)C)C(=O)N1` [Compound 165] are 340 nM and more than 10000 nM.
The like results for `CC(C)C[C@H]1C(=O)N[C@@H](CC2CC2)CN1C(=O)c1cc(-c2ccc(Cl)cc2)on1` [Compound 166] were, in that order, 360 nM and more than 10000 nM.
In the case of `CC(C)C[C@H]1C(=O)N[C@@H](CC2CC2)CN1C(=O)c1cc(-c2ccc(F)cc2)on1` [Compound 167], the EC90 in the data set with HCV Replicon 1b was determined as 450 nM. The compound also registered a CC90 at 8 days in data set [1] of more than 10000 nM.
`CC(C)C[C@H]1C(=O)N[C@@H](CC2CC2)CN1C(=O)c1cc(-c2cccs2)on1` [Compound 168]: the EC90 in the data set with HCV Replicon 1b was 900 nM. Moreover, the CC90 at 8 days in data set [1] is more than 10000 nM.
The like results for `CCC[C@H]1CN(C(=O)c2cc(-c3cccs3)on2)[C@@H](CC(C)C)C(=O)N1` [Compound 169] were, in that order, 150 nM and more than 10000 nM.
Turning to `CCC[C@H]1CN(C(=O)c2cc(-c3ccc(Cl)cc3)on2)[C@@H](CC(C)C)C(=O)N1` [Compound 170], the EC90 in the data set on HCV Replicon 1b is 50 nM. The CC90 at 8 days in data set [1] is more than 10000 nM.
Consider `CC(C)C[C@H]1C(=O)N[C@@H](C2CCCCC2)CN1C(=O)c1cc(-c2ccc(Cl)cc2)on1` [Compound 171], for which the EC90 in the data set with HCV Replicon 1b turned out to be 150 nM. For the same compound, the CC90 at 8 days in data set [1] was more than 10000 nM.
The like results for `CC(C)C[C@H]1C(=O)N[C@@H](C2CCCCC2)CN1C(=O)c1cc(-c2cccs2)on1` [Compound 172] were, in that order, 410 nM and more than 10000 nM.
The corresponding values for `CC(C)C[C@H]1C(=O)N[C@@H](C2CCCC2)CN1C(=O)c1cc(-c2ccc(Cl)cc2)on1` [Compound 173] are 120 nM and more than 10000 nM.
As for `CC(C)C[C@H]1C(=O)N[C@@H](C2CCCC2)CN1C(=O)c1cc(-c2cccs2)on1` [Compound 174], in the data set on HCV Replicon 1b, the EC90 is 250 nM. In data set [1], this compound gave a CC90 at 8 days of more than 10000 nM.
The corresponding values for `CC(C)C[C@H]1C(=O)N[C@@H](C(C)C)CN1C(=O)c1cc(-c2ccc(F)cc2)on1` [Compound 175] are 170 nM and more than 10000 nM.
The like results for `CC(C)C[C@H]1CN(C(=O)c2cc(-c3ccc(S(C)(=O)=O)cc3)on2)[C@@H](CC(C)C)C(=O)N1` [Compound 176] were, in that order, more than 20000 nM and more than 10000 nM.
The corresponding values for `CC(C)C[C@H]1C(=O)N[C@@H](c2ccccc2)CN1C(=O)c1cc(-c2ccc(F)cc2)on1` [Compound 178] are 50 nM and more than 10000 nM.
`CC(C)C[C@H]1CN(C(=O)c2cc(-c3ccc(OC(F)(F)F)cc3)on2)[C@@H](CC(C)C)C(=O)N1` [Compound 179]: the EC90 with HCV Replicon 1b is 14900 nM. Further, the CC90 at 8 days in data set [1] was more than 10000 nM.
The corresponding values for `CC(C)C[C@H]1C(=O)N[C@@H](C2CC2)CN1C(=O)c1cc(-c2ccc(F)cc2)on1` [Compound 180] are 600 nM and more than 10000 nM.
The like results for `CC(C)C[C@H]1C(=O)N[C@@H](C(C)C)CN1C(=O)c1cc(-c2ccc(Cl)cc2)on1` [Compound 181] were, in that order, 230 nM and more than 10000 nM.
The like results for `CSC[C@H]1CN(C(=O)c2cc(-c3ccc(Cl)cc3)on2)[C@@H](CC(C)C)C(=O)N1` [Compound 182] were, in that order, 550 nM and more than 10000 nM.
`CC(C)C[C@H]1C(=O)N[C@@H](c2ccccc2)CN1C(=O)c1cc(-c2ccc(Cl)cc2)on1` [Compound 183]: the EC90 in the data set with HCV Replicon 1b was 60 nM. Further, the CC90 at 8 days in data set [1] is more than 10000 nM.
The like results for `CCC[C@H]1CN(C(=O)c2cc(-c3ccc(F)c(F)c3)on2)[C@@H](CC(C)C)C(=O)N1` [Compound 184] were, in that order, 140 nM and more than 10000 nM.
The like results for `CC(C)C[C@H]1C(=O)N[C@@H](C2CCCCC2)CN1C(=O)c1cc(-c2ccc(F)c(F)c2)on1` [Compound 185] were, in that order, 610 nM and more than 10000 nM.
On to `CC(C)C[C@H]1C(=O)N[C@@H](C2CCCC2)CN1C(=O)c1cc(-c2ccc(F)c(F)c2)on1` [Compound 186], for which the EC90 with HCV Replicon 1b is 260 nM. Besides, the CC90 at 8 days in data set [1] was more than 10000 nM.
The like results for `CC(C)C[C@H]1C(=O)N[C@@H](C(C)C)CN1C(=O)c1cc(-c2ccc(F)c(F)c2)on1` [Compound 187] were, in that order, 620 nM and more than 10000 nM.
Turning to `CC(C)C[C@H]1C(=O)N[C@@H](c2ccccc2)CN1C(=O)c1cc(-c2ccc(F)c(F)c2)on1` [Compound 188], the EC90 with HCV Replicon 1b is 180 nM. In data set [1], this compound gave a CC90 at 8 days of more than 10000 nM.
The corresponding values for `CCC[C@H]1CN(C(=O)c2cc(-c3ccc(F)cc3)no2)[C@@H](CC(C)C)C(=O)N1` [Compound 189] are 110 nM and more than 10000 nM.
The corresponding values for `CC(C)C[C@H]1CN(C(=O)c2cc(-c3ccc(Cl)cc3)no2)[C@@H](CC(C)C)C(=O)N1` [Compound 190] are 320 nM and more than 10000 nM.
The corresponding values for `CC(C)C[C@H]1C(=O)N[C@@H](CC2CC2)CN1C(=O)c1cc(-c2ccc(F)cc2)no1` [Compound 191] are 120 nM and more than 10000 nM.
As for `CC(C)C[C@H]1C(=O)N[C@@H](C2CCCCC2)CN1C(=O)c1cc(-c2ccc(F)cc2)no1` [Compound 193], in the data set on HCV Replicon 1b, the EC90 stood at 50 nM. In data set [1], the CC90 at 8 days was more than 10000 nM.
The like results for `CC(C)C[C@H]1C(=O)N[C@@H](C2CCCC2)CN1C(=O)c1cc(-c2ccc(F)cc2)no1` [Compound 194] were, in that order, 40 nM and more than 10000 nM.
The corresponding values for `CC(C)C[C@H]1CN(Cc2cc(-c3ccccc3)on2)[C@@H](CC(C)C)C(=O)N1` [Compound 195] are 750 nM and more than 10000 nM.

The EC90 is the point of the concentration-response curve where the effect stands at 90%.
